One experiment concerns the target T1, M4 muscarinic receptor (Homo sapiens, UniProt P08173).
T1 construct: expressed in transfected cells; host or cells: CHO (M4-CHO)
T1 sequence (P08173 1-479): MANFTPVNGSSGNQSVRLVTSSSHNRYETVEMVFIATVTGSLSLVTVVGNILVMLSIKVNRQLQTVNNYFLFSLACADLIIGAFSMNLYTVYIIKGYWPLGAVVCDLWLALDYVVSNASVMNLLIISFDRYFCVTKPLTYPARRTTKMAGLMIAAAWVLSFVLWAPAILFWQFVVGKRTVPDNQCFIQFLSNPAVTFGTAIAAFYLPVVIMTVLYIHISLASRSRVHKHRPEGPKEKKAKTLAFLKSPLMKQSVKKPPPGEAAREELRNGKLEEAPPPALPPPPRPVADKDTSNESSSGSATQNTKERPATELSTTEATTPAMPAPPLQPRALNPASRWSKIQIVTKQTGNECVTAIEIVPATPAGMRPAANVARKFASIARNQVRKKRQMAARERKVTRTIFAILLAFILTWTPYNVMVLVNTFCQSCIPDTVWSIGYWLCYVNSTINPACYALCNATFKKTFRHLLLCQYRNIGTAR
The experiment is described as follows: Functional mobilization of intracellular calcium (FLIPR) in M4-CHO cells. The format is cell-based. The settings on record: Table 4; for Emax: 100% efficacy is the maximum response obtained with the Carbachol control; for M4 Activity: modulating M4 receptor. In a few lines:
(§1)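 Two modes: direct compound addition for agonism, or 15 min compound pre-incubation (or co-application) before carbachol at EC80 for inhibition. Calcium signal from Fluo-3 AM or Calcium 3 dye in CHO cells, 1 mM probenecid, pH 7.4, read 60 sec at 488/540 nm; DMSO 0.5% final.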

For the next experiment, the target named is T2, M1 muscarinic receptor (Homo sapiens, UniProt P11229).
T2 construct: expressed in transfected cells; host or cells: CHO (M1-CHO)
T2 sequence (P11229 1-460): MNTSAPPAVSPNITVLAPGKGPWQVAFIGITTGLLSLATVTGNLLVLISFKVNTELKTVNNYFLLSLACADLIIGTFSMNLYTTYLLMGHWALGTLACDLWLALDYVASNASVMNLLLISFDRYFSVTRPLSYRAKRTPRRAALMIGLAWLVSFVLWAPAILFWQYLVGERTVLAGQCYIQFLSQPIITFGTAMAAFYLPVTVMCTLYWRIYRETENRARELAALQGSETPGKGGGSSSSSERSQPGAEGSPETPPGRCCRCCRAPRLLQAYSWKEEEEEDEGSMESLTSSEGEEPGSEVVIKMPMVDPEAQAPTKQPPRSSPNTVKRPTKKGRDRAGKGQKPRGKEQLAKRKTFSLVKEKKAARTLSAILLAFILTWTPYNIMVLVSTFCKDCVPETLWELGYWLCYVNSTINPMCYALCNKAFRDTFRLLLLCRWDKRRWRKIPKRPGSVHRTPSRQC
The experiment is described as follows: Functional mobilization of intracellular calcium (FLIPR) in M1-CHO cells. The experiment is classed as cell-based. As to conditions: Table 4; for Emax: 100% efficacy is the maximum response obtained with the Carbachol control; for M1 Activity: modulating M1 receptor. In a few lines: as §1

SMILES strings stand for the structures.

What is called Emax is the maximal effect, on the per cent scale that the assay sets. Turning to `COC(=O)NC1CC2(CCN(C3C[C@@H]4CC[C@@H]3C4)CC2)c2ccccc21` (stereo partly drawn) [compound 586], on M4 muscarinic receptor, the maximal effect (Emax) was in the range of 25 to 100% and the “M4 Activity” value is “xxx (activity was measured to be less than 2.0 μM)”. Also, at M1 muscarinic receptor, the Emax was in the range of 25 to 100% and the “M1 Activity” value is “xxx (activity was measured to be less than 2.0 μM)”.
`CCOC(=O)N1CCC(N2CCCC3(CC2)CN(C(C)=O)c2ccc(F)cc23)CC1` (stereo not drawn) [compound 587]: at M4 muscarinic receptor, the maximal effect (Emax) was 25 to 100% and the “M4 Activity” value is reported as “xxx (activity was measured to be less than 2.0 μM)”. At M1 muscarinic receptor, the Emax fell in the range of 25 to 100% and the “M1 Activity” value is recorded as “xxx (activity was measured to be less than 2.0 μM)”.
Turning to `CN(C)C(=O)N1CC2(CCN(C3CCN(C(=O)COc4ccccc4)CC3)CC2)c2cc(F)ccc21` [compound 588], on M4 muscarinic receptor, the Emax was less than 25% and the “M4 Activity” value is recorded as “x (activity was measured to be greater than 5.0 μM)”. At M1 muscarinic receptor, the maximal effect (Emax) was less than 25% and the “M1 Activity” value is reported as “x (activity was measured to be greater than 5.0 μM)”.
As to `CC#CC(C)OC(=O)N1CCC(N2CCC3(CC2)CN(C(C)=O)c2ccccc23)CC1` (stereo not drawn) [compound 589], at M4 muscarinic receptor, the maximal response (Emax) was less than 25% and the “M4 Activity” value was “x (activity was measured to be greater than 5.0 μM)”. Also, on M1 muscarinic receptor, the maximal response (Emax) was less than 25% and the “M1 Activity” value is listed as “x (activity was measured to be greater than 5.0 μM)”.
Regarding `CCCCC(=O)N1CCC(N2CCC3(CC2)CN(C(=O)N(C)C)c2ccc(F)cc23)CC1` [compound 590], on M4 muscarinic receptor, the Emax is less than 25%; the “M4 Activity” value was “xx (activity was measured to be between 2.0 μM and 5.0 μM)”. At M1 muscarinic receptor, the Emax lay in the range of 25 to 100%; the “M1 Activity” value was “xx (activity was measured to be between 2.0 μM and 5.0 μM)”.
Turning to `CCOC(=O)N1CCC(N2CCC3(CCCc4ccccc43)CC2)CC1` [compound 591], at M4 muscarinic receptor, the Emax was 25 to 100% and the “M4 Activity” value is listed as “xxx (activity was measured to be less than 2.0 μM)”. Besides, on M1 muscarinic receptor, the maximum response (Emax) was more than 100% and the “M1 Activity” value is “xxx (activity was measured to be less than 2.0 μM)”.
For `CN(C)C(=O)N1CC2(CCN(C3CCN(C(=O)CC(F)(F)F)CC3)CC2)c2cc(F)ccc21` [compound 592], on M4 muscarinic receptor, the Emax is less than 25% and the “M4 Activity” value is “x (activity was measured to be greater than 5.0 μM)”. Besides, on M1 muscarinic receptor, the maximal effect (Emax) lay within 25 to 100%; the “M1 Activity” value is “xx (activity was measured to be between 2.0 μM and 5.0 μM)”.
`Cc1ccc(N2CCC(N3CCC4(CC3)CN(C(=O)N(C)C)c3ccc(F)cc34)CC2)nn1` [compound 594]: on M4 muscarinic receptor, the Emax is less than 25%; the “M4 Activity” value is “xx (activity was measured to be between 2.0 μM and 5.0 μM)”. At M1 muscarinic receptor, the Emax was 25 to 100% and the “M1 Activity” value was “x (activity was measured to be greater than 5.0 μM)”.
As to `CN(C)C(=O)N1CC2(CCN(C3CCN(C(=O)OCC4CC4)CC3)CC2)c2cc(F)ccc21` [compound 595], on M4 muscarinic receptor, the maximal response (Emax) lay within 25 to 100% and the “M4 Activity” value is on record as “xxx (activity was measured to be less than 2.0 μM)”. At M1 muscarinic receptor, the Emax was 25 to 100% and the “M1 Activity” value is recorded as “xxx (activity was measured to be less than 2.0 μM)”.
As for `CCCOC(=O)N1CCC(N2CCC3(CC2)CN(CCOC)c2ccc(F)cc23)CC1` [compound 596], on M4 muscarinic receptor, the Emax lay within 25 to 100% and the “M4 Activity” value is on record as “xxx (activity was measured to be less than 2.0 μM)”. In addition, at M1 muscarinic receptor, the Emax is 25 to 100% and the “M1 Activity” value is given as “xxx (activity was measured to be less than 2.0 μM)”.
As to `Cc1ccc2c(c1)C1(CCN(C3CC4CCC3C4)CC1)CN2C(=O)c1ccco1` (stereo not drawn) [compound 597], on M4 muscarinic receptor, the Emax was less than 25% and the “M4 Activity” value is reported as “x (activity was measured to be greater than 5.0 μM)”. On M1 muscarinic receptor, the maximal effect (Emax) is 25 to 100% and the “M1 Activity” value is reported as “x (activity was measured to be greater than 5.0 μM)”.
With `CCOC(=O)N1CCC(N2CCC3(CC2)CN(C(=O)N2CCCCC2)c2ccc(F)cc23)CC1` [compound 598], on M4 muscarinic receptor, the maximum response (Emax) fell in the range of 25 to 100% and the “M4 Activity” value is listed as “xxx (activity was measured to be less than 2.0 μM)”. Besides, at M1 muscarinic receptor, the Emax was in the range of 25 to 100% and the “M1 Activity” value is given as “xxx (activity was measured to be less than 2.0 μM)”.
Consider `COc1cc2c(cc1OC)C1(CCN(C3CCCCCCCCCCC3)CC1)C[C@@H]2NC(C)=O` [compound 599], for which, at M4 muscarinic receptor, the Emax fell in the range of 25 to 100% and the “M4 Activity” value is reported as “x (activity was measured to be greater than 5.0 μM)”. In addition, at M1 muscarinic receptor, the maximal response (Emax) lay in the range of 25 to 100% and the “M1 Activity” value is reported as “x (activity was measured to be greater than 5.0 μM)”.
Regarding `CC(=O)N1CC2(CCN(CC3=C(C)C=CCC3(C)C)CC2)c2cc(F)ccc21` [compound 600], at M4 muscarinic receptor, the maximal effect (Emax) was less than 25% and the “M4 Activity” value is “x (activity was measured to be greater than 5.0 μM)”. Besides, at M1 muscarinic receptor, the Emax is less than 25% and the “M1 Activity” value is “x (activity was measured to be greater than 5.0 μM)”.
Take `CC(=O)N[C@H]1CCC2(CCN(CC3CCOC3)CC2)c2ccccc21` (stereo partly drawn) [compound 602]: on M4 muscarinic receptor, the maximal effect (Emax) was in the range of 25 to 100%; the “M4 Activity” value was “xx (activity was measured to be between 2.0 μM and 5.0 μM)”. In addition, on M1 muscarinic receptor, the maximal response (Emax) was in the range of 25 to 100% and the “M1 Activity” value is recorded as “xxx (activity was measured to be less than 2.0 μM)”.
Regarding `CCOC(=O)N1CCC(N2CCC3(CC2)CN(C(C)=O)c2ccc(C(F)(F)F)cc23)CC1` [compound 603], on M4 muscarinic receptor, the maximal response (Emax) lay in the range of 25 to 100% and the “M4 Activity” value is reported as “xxx (activity was measured to be less than 2.0 μM)”. At M1 muscarinic receptor, the Emax is 25 to 100% and the “M1 Activity” value is listed as “xxx (activity was measured to be less than 2.0 μM)”.
For `CCCCOC(=O)N1C2CCC1CC(N1CCC3(CC1)CN(C(C)=O)c1ccccc13)C2` (stereo not drawn) [compound 604], on M4 muscarinic receptor, the Emax lay in the range of 25 to 100% and the “M4 Activity” value is “xxx (activity was measured to be less than 2.0 μM)”. On M1 muscarinic receptor, the Emax is less than 25% and the “M1 Activity” value is “x (activity was measured to be greater than 5.0 μM)”.
As to `CC(=O)N[C@H]1CCC2(CCN(CC3CCCCC3)CC2)c2ccccc21` [compound 605], on M4 muscarinic receptor, the maximal response (Emax) was in the range of 25 to 100% and the “M4 Activity” value was “xxx (activity was measured to be less than 2.0 μM)”. Moreover, on M1 muscarinic receptor, the Emax is 25 to 100% and the “M1 Activity” value was “xxx (activity was measured to be less than 2.0 μM)”.
For `CCOC(=O)N1C2CCC1CC(N1CCC3(CC1)CN(C(C)=O)c1ccc(C(C)C)cc13)C2` (stereo not drawn) [compound 606], at M4 muscarinic receptor, the Emax lay in the range of 25 to 100% and the “M4 Activity” value is “xxx (activity was measured to be less than 2.0 μM)”. Besides, on M1 muscarinic receptor, the Emax lay within 25 to 100% and the “M1 Activity” value is reported as “xxx (activity was measured to be less than 2.0 μM)”.
In the case of `COCCOC(=O)N1C2CCC1CC(N1CCC3(CC1)CN(C(C)=O)c1ccccc13)C2` (stereo not drawn) [compound 607], on M4 muscarinic receptor, the maximal effect (Emax) was in the range of 25 to 100% and the “M4 Activity” value is on record as “xxx (activity was measured to be less than 2.0 μM)”. Also, at M1 muscarinic receptor, the Emax is 25 to 100% and the “M1 Activity” value was “xxx (activity was measured to be less than 2.0 μM)”.
As for `CN(C)C(=O)N1CC2(CCN(C[C@@H]3CCN(c4cnccn4)C3)CC2)c2cc(F)ccc21` [compound 608], at M4 muscarinic receptor, the Emax fell in the range of 25 to 100% and the “M4 Activity” value is reported as “xxx (activity was measured to be less than 2.0 μM)”. Moreover, on M1 muscarinic receptor, the maximal response (Emax) was in the range of 25 to 100% and the “M1 Activity” value is on record as “xxx (activity was measured to be less than 2.0 μM)”.
`O=C1CC2(CCN(C3CCCCCC3)CC2)c2ccc(Cl)cc21` [compound 609]: at M4 muscarinic receptor, the Emax lay in the range of 25 to 100% and the “M4 Activity” value is on record as “xxx (activity was measured to be less than 2.0 μM)”. At M1 muscarinic receptor, the Emax lay within 25 to 100%; the “M1 Activity” value is “xx (activity was measured to be between 2.0 μM and 5.0 μM)”.
With `CCOC(=O)N1CCC(N2CCC3(CC2)CN(C(C)=O)c2c(C)cc(C)cc23)CC1` [compound 610], on M4 muscarinic receptor, the Emax lay in the range of 25 to 100% and the “M4 Activity” value is “xxx (activity was measured to be less than 2.0 μM)”. Moreover, at M1 muscarinic receptor, the Emax lay in the range of 25 to 100% and the “M1 Activity” value is given as “xxx (activity was measured to be less than 2.0 μM)”.
In the case of `CC(=O)N1CC2(CCN(C3CCN(c4cncc(C5CC5)n4)CC3)CC2)c2ccccc21` [compound 611], on M4 muscarinic receptor, the maximal response (Emax) is less than 25% and the “M4 Activity” value is given as “x (activity was measured to be greater than 5.0 μM)”. On M1 muscarinic receptor, the Emax is 25 to 100% and the “M1 Activity” value is reported as “xxx (activity was measured to be less than 2.0 μM)”.
